We go through one compound from patent US4200635A, “Antibacterially active amides” (Beecham Group Limited, priority 1977, dated 1980).

Values after ≈ are worked out from the molar mass of the structure shown.

One assay has as its system Pasteurella multocida 1633. As to the kind of experiment: MIC, serial dilution in nutrient agar, human bacteria. The format is cell-based. Particulars: nutrient agar containing 5% chocolated horse blood.
The compound `CC(=CC(=O)N(C)C)CC1OCC(CC2OC2C(C)C(C)O)C(O)C1O` (centres unmarked) [Example 4, Dimethylamide of monic acid A] yielded an MIC of 2.5 µg/mL (≈ 6.73 µM).

The next assay relates to Haemophilus influenzae Q1. Described as above. It counts as cell-based. The conditions noted are these: nutrient agar containing 5% chocolated horse blood.
Turning to `CC(=CC(=O)N(C)C)CC1OCC(CC2OC2C(C)C(C)O)C(O)C1O` (centres unmarked) [Example 4, Dimethylamide of monic acid A], the MIC came out at 2.5 µg/mL (≈ 6.73 µM).

The test system of the next assay is Haemophilus influenzae Wy21. The assay is described as above. Particulars: Haemophilus influenzae Wy21; nutrient agar containing 5% chocolated horse blood; read-out: M.I.C. The format is cell-based.
`CC(=CC(=O)N(C)C)CC1OCC(CC2OC2C(C)C(C)O)C(O)C1O` (centres unmarked) [Example 4, Dimethylamide of monic acid A]: the MIC was determined as 2.5 µg/mL (≈ 6.73 µM).

Another assay deals with Neisseria catarrhalis 1502. The assay is described as above. The conditions noted are these: Neisseria catarrhalis 1502; nutrient agar containing 5% chocolated horse blood; read-out: M.I.C. It counts as cell-based.
On to `CC(=CC(=O)N(C)C)CC1OCC(CC2OC2C(C)C(C)O)C(O)C1O` (centres unmarked) [Example 4, Dimethylamide of monic acid A], for which the MIC stood at 2.5 µg/mL (≈ 6.73 µM).

For a further assay, the system named is Bacillus subtilis 6633. The description is as above. The format is cell-based. The conditions noted are these: Bacillus subtilis 6633; nutrient agar containing 5% chocolated horse blood; read-out: M.I.C.
For the compound `CC(=CC(=O)N(C)C)CC1OCC(CC2OC2C(C)C(C)O)C(O)C1O` (centres unmarked) [Example 4, Dimethylamide of monic acid A], the MIC turned out to be 25 µg/mL (≈ 67.3 µM).

The subject of another assay is Staph. aureus Oxford. Described as above. The format is cell-based. Particulars: Staphylococcus aureus; Staph. aureus Oxford; nutrient agar containing 5% chocolated horse blood; read-out: M.I.C.
For `CC(=CC(=O)N(C)C)CC1OCC(CC2OC2C(C)C(C)O)C(O)C1O` (centres unmarked) [Example 4, Dimethylamide of monic acid A], the MIC amounted to 5 µg/mL (≈ 13.5 µM).

In a further assay the test system is Staph. aureus Russell. The assay is described as above. The format is cell-based. The conditions noted are these: Staphylococcus aureus; Staph. aureus Russell; nutrient agar containing 5% chocolated horse blood; read-out: M.I.C.
`CC(=CC(=O)N(C)C)CC1OCC(CC2OC2C(C)C(C)O)C(O)C1O` (centres unmarked) [Example 4, Dimethylamide of monic acid A]: the MIC came out at 25 µg/mL (≈ 67.3 µM).

A further assay concerns Strep. pneumoniae CN33. The assay is described as above. It counts as cell-based. Particulars: Streptococcus pneumoniae; Strep. pneumoniae CN33; nutrient agar containing 5% chocolated horse blood; read-out: M.I.C.
Take `CC(=CC(=O)N(C)C)CC1OCC(CC2OC2C(C)C(C)O)C(O)C1O` (centres unmarked) [Example 4, Dimethylamide of monic acid A]: the MIC is 50 µg/mL (≈ 135 µM).

The next assay deals with Bord. bronchiseptica BO9. As to the kind of experiment: MIC, veterinary bacteria. It counts as cell-based. Particulars: Bordetella bronchiseptica; Bord. bronchiseptica BO9; read-out: M.I.C.
Take `CC(=CC(=O)N(C)C)CC1OCC(CC2OC2C(C)C(C)O)C(O)C1O` (centres unmarked) [Example 4, Dimethylamide of monic acid A]: the MIC was determined as 40 µg/mL (≈ 108 µM).

Another assay concerns Past. multocida PAI. As to the kind of experiment: MIC, veterinary bacteria. It counts as cell-based. Particulars: Pasteurella multocida; Past. multocida PAI; read-out: M.I.C.
In the case of `CC(=CC(=O)N(C)C)CC1OCC(CC2OC2C(C)C(C)O)C(O)C1O` (centres unmarked) [Example 4, Dimethylamide of monic acid A], the MIC amounted to 5 µg/mL (≈ 13.5 µM).

The next assay relates to Past. haemolytica PA5. As to the kind of experiment: MIC, veterinary bacteria. It counts as cell-based. Particulars: Mannheimia haemolytica; Past. haemolytica PA5; read-out: M.I.C.
As for `CC(=CC(=O)N(C)C)CC1OCC(CC2OC2C(C)C(C)O)C(O)C1O` (centres unmarked) [Example 4, Dimethylamide of monic acid A], the MIC was 40 µg/mL (≈ 108 µM).

Another assay has as its system Staph. aureus B4. As to the kind of experiment: MIC, veterinary bacteria. The conditions noted are these: Staphylococcus aureus; Staph. aureus B4; read-out: M.I.C. The format is cell-based.
`CC(=CC(=O)N(C)C)CC1OCC(CC2OC2C(C)C(C)O)C(O)C1O` (centres unmarked) [Example 4, Dimethylamide of monic acid A]: the MIC worked out at 20 µg/mL (≈ 53.8 µM).

A further assay concerns Staph. aureus 152. As to the kind of experiment: MIC, veterinary bacteria. It counts as cell-based. The conditions noted are these: Staphylococcus aureus.
With `CC(=CC(=O)N(C)C)CC1OCC(CC2OC2C(C)C(C)O)C(O)C1O` (centres unmarked) [Example 4, Dimethylamide of monic acid A], the MIC was greater than 80 µg/mL.

The next assay concerns Strep. uberis SPU 1. As to the kind of experiment: MIC, veterinary bacteria. It counts as cell-based. The conditions noted are these: Streptococcus uberis, SPU1; Strep. uberis SPU 1; read-out: M.I.C.
Regarding `CC(=CC(=O)N(C)C)CC1OCC(CC2OC2C(C)C(C)O)C(O)C1O` (centres unmarked) [Example 4, Dimethylamide of monic acid A], the MIC worked out at 20 µg/mL (≈ 53.8 µM).

Another assay deals with Strep. dysgalactiae SPD 1. As to the kind of experiment: MIC, veterinary bacteria. It counts as cell-based. The conditions noted are these: Streptococcus dysgalactiae, SPD1; Strep. dysgalactiae SPD 1; read-out: M.I.C.
Take `CC(=CC(=O)N(C)C)CC1OCC(CC2OC2C(C)C(C)O)C(O)C1O` (centres unmarked) [Example 4, Dimethylamide of monic acid A]: the MIC was determined as 20 µg/mL (≈ 53.8 µM).

The subject of the next assay is M. suipneumoniae Str. 11. As to the kind of experiment: in vitro MIC, anti-mycoplasmal activity. It counts as cell-based. Particulars: Mesomycoplasma hyopneumoniae, Friis' broth, microtiter method.
Compound `CC(=CC(=O)N(C)C)CC1OCC(CC2OC2C(C)C(C)O)C(O)C1O` (centres unmarked) [Example 4, Dimethylamide of monic acid A] displayed an MIC of 10 µg/mL (≈ 26.9 µM).

The subject of a further assay is M. dispar H225. As to the kind of experiment: in vitro MIC, anti-mycoplasmal activity. It counts as cell-based. The conditions noted are these: M. dispar H225; Friis' broth, microtiter method; read-out: M.I.C. From the text: (§1) Tables 3 and 4 show the in vitro MIC values (μg/ml) of the compounds of Examples 1 to 9 against a number of mycoplasma organisms, determined in Friis' broth using the microtiter method.
As to `CC(=CC(=O)N(C)C)CC1OCC(CC2OC2C(C)C(C)O)C(O)C1O` (centres unmarked) [Example 4, Dimethylamide of monic acid A], the MIC turned out to be 5 µg/mL (≈ 13.5 µM).

A further assay relates to M. dispar NCTC 10125. As to the kind of experiment: in vitro MIC, anti-mycoplasmal activity. It counts as cell-based. The conditions noted are these: Friis' broth, microtiter method.
Excerpt: as §1
Compound `CC(=CC(=O)N(C)C)CC1OCC(CC2OC2C(C)C(C)O)C(O)C1O` (centres unmarked) [Example 4, Dimethylamide of monic acid A] showed an MIC of 2.5 µg/mL (≈ 6.73 µM).

For the next assay, the system named is M. fermentans MWKL4. As to the kind of experiment: in vitro MIC, anti-mycoplasmal activity. It counts as cell-based. Particulars: Mycoplasmopsis fermentans, Friis' broth, microtiter method.
Excerpt: as §1
`CC(=CC(=O)N(C)C)CC1OCC(CC2OC2C(C)C(C)O)C(O)C1O` (centres unmarked) [Example 4, Dimethylamide of monic acid A] had an MIC of 1.25 µg/mL (≈ 3.36 µM).

The next assay has as its system M. pneumoniae ATCC 15492. As to the kind of experiment: in vitro MIC, anti-mycoplasmal activity. The format is cell-based. The conditions noted are these: Mycoplasmoides pneumoniae, ATCC15492, Friis' broth, microtiter method.
Excerpt: as §1
Take `CC(=CC(=O)N(C)C)CC1OCC(CC2OC2C(C)C(C)O)C(O)C1O` (centres unmarked) [Example 4, Dimethylamide of monic acid A]: the MIC is greater than 10 µg/mL.

A further assay has as its system M. pulmonis JB. As to the kind of experiment: in vitro MIC, anti-mycoplasmal activity. The format is cell-based. The conditions noted are these: Mycoplasmopsis pulmonis, Friis' broth, microtiter method.
Excerpt: as §1
Compound `CC(=CC(=O)N(C)C)CC1OCC(CC2OC2C(C)C(C)O)C(O)C1O` (centres unmarked) [Example 4, Dimethylamide of monic acid A] displayed an MIC of 5 µg/mL (≈ 13.5 µM).

In a further assay the test system is M. suipneumoniae J2206/183b. As to the kind of experiment: in vitro MIC, anti-mycoplasmal activity. It counts as cell-based. Particulars: Mesomycoplasma hyopneumoniae, Friis' broth, microtiter method.
Excerpt: as §1
As to `CC(=CC(=O)N(C)C)CC1OCC(CC2OC2C(C)C(C)O)C(O)C1O` (centres unmarked) [Example 4, Dimethylamide of monic acid A], the MIC was greater than 10 µg/mL.

A further assay concerns M. pneumoniae 427a. As to the kind of experiment: in vitro MIC, anti-mycoplasmal activity. The conditions noted are these: Mycoplasmoides pneumoniae, Friis' broth, microtiter method. The format is cell-based.
For the compound `CC(=CC(=O)N(C)C)CC1OCC(CC2OC2C(C)C(C)O)C(O)C1O` (centres unmarked) [Example 4, Dimethylamide of monic acid A], the MIC is greater than 10 µg/mL.
